The results in this text go back to patent US10723723B2, “Substituted bicycle heterocyclic derivatives useful as ROMK channel inhibitors” (BRISTOL-MYERS SQUIBB COMPANY, priority 2016, dated 2020).

In this test the target is hROMK (human Kir1.1) (Homo sapiens (Human), UniProt P48048). The test can be described thus: Thallium Flux Assay (FluxOR, CHO T-Rex hROMK stable cell line). Type of test: cell-based. Particulars: CHO T-Rex hROMK cells, 10-point concentration response curve; read-out: Human ROMK TH Flux IC50.
Chain of hROMK (human Kir1.1) (P48048 whole entry): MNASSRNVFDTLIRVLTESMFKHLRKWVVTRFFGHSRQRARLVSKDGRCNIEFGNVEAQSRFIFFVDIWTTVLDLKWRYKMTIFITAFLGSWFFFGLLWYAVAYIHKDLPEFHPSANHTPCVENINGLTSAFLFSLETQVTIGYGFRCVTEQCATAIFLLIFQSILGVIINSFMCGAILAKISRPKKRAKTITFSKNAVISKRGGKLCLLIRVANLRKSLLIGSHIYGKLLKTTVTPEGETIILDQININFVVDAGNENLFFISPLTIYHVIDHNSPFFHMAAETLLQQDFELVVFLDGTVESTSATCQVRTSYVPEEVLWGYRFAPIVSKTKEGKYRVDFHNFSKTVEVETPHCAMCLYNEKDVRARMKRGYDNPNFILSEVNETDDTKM
`Cc1cc(-n2cc(CNC[C@@H](c3ccc4c(c3C)COC4=O)N3CCCS3(=O)=O)cn2)ncc1C#N` [Example 66, (R)-6-(4-(((2-(1,1-dioxidoisothiazolidin-2-yl)-2-(4-methyl-1-oxo-1,3-dihydroisobenzofuran-5-yl)ethyl)amino)methyl)-1H-pyrazol-1-yl)-4-methylnicotinonitrile]: the IC50 is 260 nM.

Consider `Cc1c(C(O)CN(C)Cc2ccc(-c3ccc(C#N)c(F)c3)cc2)ccc2c1COC2=O` (single isomer, unassigned) [Example 27-II, 3-fluoro-4′-(((2-hydroxy-2-(4-methyl-1-oxo-1,3-dihydroisobenzofuran-5-yl)ethyl)(methyl)amino)methyl)-[1,1′-biphenyl]-4-carbonitrile], for which the IC50 was 240 nM. `Cc1c([C@@H](O)CNCc2cnn(-c3ccc(-c4noc(=O)n4C)cn3)c2)ccc2c1COC2=O` [Example 171, (R)-3-(6-(4-(((2-hydroxy-2-(4-methyl-1-oxo-1,3-dihydroisobenzofuran-5-yl)ethyl)amino)methyl)-1H-pyrazol-1-yl)pyridin-3-yl)-4-methyl-1,2,4-oxadiazol-5(4H)-one]: the IC50 was determined as 1000 nM.

For `Cc1c(C(O)CN(C)Cc2ccc(-n3ccc4cc(C#N)ccc43)cc2)ccc2c1COC2=O` (single isomer, unassigned) [Example 30-II, 1-(4-(((2-hydroxy-2-(4-methyl-1-oxo-1,3-dihydroisobenzofuran-5-yl)ethyl)(methyl)amino)methyl)phenyl)-1H-indole-5-carbonitrile], the half-inhibitory concentration (IC50) was 1200 nM.

As to `Cc1cc(-n2[nH]cc(CNC[C@H](O)c3ccc4c(c3C)COC4=O)c2=O)ncc1C#N` [Example 36, (R)-6-(4-(((2-hydroxy-2-(4-methyl-1-oxo-1,3-dihydroisobenzofuran-5-yl)ethyl)amino)methyl)-5-oxo-2,5-dihydro-1H-pyrazol-1-yl)-4-methylnicotinonitrile], the half-maximal inhibitory concentration (IC50) was 390 nM. Turning to `CN(Cc1ccc(-c2ccc(C#N)c(F)c2)cc1)Cc1ccc2c(c1)COC2=O` [Example 29, 3-fluoro-4′-((methyl((1-oxo-1,3-dihydroisobenzofuran-5-yl)methyl)amino)methyl)-[1,1′-biphenyl]-4-carbonitrile], the IC50 came out at 3300 nM. Next, `CN[C@@H](CNCc1cnn(-c2cc(C)c(C#N)cn2)c1)c1ccc2c(c1C)COC2=O` [Example 64, (R)-4-methyl-6-(4-(((2-(4-methyl-1-oxo-1,3-diydroisobenzofuran-5-yl)-2-(methylamino)ethyl)amino)methyl)-1H-pyrazol-1-yl)nicotinonitrile]: 430 nM. The figure for `Cc1c(C(O)CN(C)Cc2ccc(-n3ccc4c(C#N)cccc43)cc2)ccc2c1COC2=O` (single isomer, unassigned) [Example 28-II, 1-(4-(((2-hydroxy-2-(4-methyl-1-oxo-1,3-dihydroisobenzofuran-5-yl)ethyl)(methyl)amino)methyl)phenyl)-1H-indole-4-carbonitrile] is 390 nM; for `Cc1cc(-n2cc(CNC[C@H](O)c3ccc4c(c3C)COC4=O)ccc2=O)ncc1C#N` [Example 99, (R)-5-(((2-hydroxy-2-(4-methyl-1-oxo-1,3-dihydroisobenzofuran-5-yl)ethyl)amino)methyl)-4′-methyl-2-oxo-2H-[1,2′-bipyridine]-5′-carbonitrile] it is 140 nM. With `Cc1cc(-c2cnc(CNC[C@H](O)c3ccc4c(c3C)COC4=O)nc2)ncc1C#N` [Example 40, (R)-6-(2-(((2-hydroxy-2-(4-methyl-1-oxo-1,3-dihydroisobenzofuran-5-yl)ethyl)amino)methyl)pyrimidin-5-yl)-4-methylnicotinonitrile], the IC50 was 340 nM. As to `Cc1c([C@@H](O)CNCc2cnn(-c3ccnc4c3ccn4C)c2)ccc2c1COC2=O` [Example 166, (R)-5-(1-hydroxy-2-(((1-(1-methyl-1H-pyrrolo[2,3-b]pyridin-4-yl)-1H-pyrazol-4-yl)methyl)amino)ethyl)-4-methylisobenzofuran-1(3H)-one], the IC50 was 1300 nM. Next, `Cc1cc(-n2cc(CNCC(O)c3ccc4c(c3C)C(C)OC4=O)cn2)ncc1C#N` (single isomer, unassigned) [Example 172-II, 6-(4-(((2-(3,4-dimethyl-1-oxo-1,3-dihydroisobenzofuran-5-yl)-2-hydroxyethyl)amino)meth-yl)-1H-pyrazol-1-yl)-4-methylnicotinonitrile]: 1800 nM; `Cc1c([C@@H](O)CNCc2cncc(-c3ccc4oc(=O)n(C)c4c3)c2)ccc2c1COC2=O` [Example 120, (R)-5-(5-(((2-hydroxy-2-(4-methyl-1-oxo-1,3-dihydroisobenzofuran-5-yl)ethyl)amino)methyl)pyridin-3-yl)-3-methylbenzo[d]oxazol-2(3H)-one]: 120 nM; `Cc1cc(-n2ncc(C(C)NC[C@H](O)c3ccc4c(c3C)COC4=O)n2)ncc1C#N` (single isomer, unassigned) [Example 59]: 540 nM. As for `Cc1cn(-c2cnc(CNC[C@H](O)c3ccc4c(c3C)COC4=O)cn2)cn1` [Example 141, (R)-5-(1-hydroxy-2-(((5-(4-methyl-1H-imidazol-1-yl)pyrazin-2-yl)methyl)amino)ethyl)-4-methylisobenzofuran-1(3H)-one], the IC50 was found to be 290 nM.

Take `Cc1cc(-n2cc(CNCC(C)(O)c3ccc4c(c3C)COC4=O)cn2)ncc1C#N` (single isomer, unassigned) [Example 170-I, 6-(4-(((2-hydroxy-2-(4-methyl-1-oxo-1,3-dihydroisobenzofuran-5-yl)propyl)amino)methyl)-1H-pyrazol-1-yl)-4-methylnicotinonitrile]: the IC50 worked out at 160 nM. With `Cc1cc(-c2ccc(CN(C)CC(O)c3ccc4c(c3C)COC4=O)cc2)ncc1C#N` (single isomer, unassigned) [Example 31-II, 6-(4-(((2-hydroxy-2-(4-methyl-1-oxo-1,3-dihydroisobenzofuran-5-yl)ethyl)(methyl)amino)methyl)phenyl)-4-methylnicotinonitrile], the IC50 came out at 370 nM. Take `Cc1c([C@@H](O)CNCc2cnn(-c3ccc4nncn4n3)c2)ccc2c1COC2=O` [Example 79, (R)-5-(2-(((1-([1,2,4]triazolo[4,3-b]pyridazin-6-yl)-1H-pyrazol-4-yl)methyl)amino)-1-hydroxyethyl)-4-methylisobenzofuran-1(3H)-one]: the IC50 was found to be 530 nM. For the compound `Cc1cc(-n2cc(CNC[C@@H](c3ccc4c(c3C)COC4=O)N(C)C)cn2)ncc1C#N` [Example 174, (R)-6-(4-(((2-(dimethylamino)-2-(4-methyl-1-oxo-1,3-dihydroisobenzofuran-5-yl)ethyl)amino)methyl)-1H-pyrazol-1-yl)-4-methylnicotinonitrile], the IC50 worked out at 11600 nM. Regarding `Cc1c([C@@H](O)CNCc2ccc(-c3ccc(=O)n(C)n3)nc2)ccc2c1COC2=O` [Example 122, (R)-6-(5-(((2-hydroxy-2-(4-methyl-1-oxo-1,3-dihydroisobenzofuran-5-yl)ethyl)amino)methyl)pyridin-2-yl)-2-methylpyridazin-3(2H)-one], the IC50 is 170 nM. On to `Cc1c([C@H](CNCc2cnn(-c3ccc4oc(=O)n(C)c4c3)c2)OC(=O)[C@H](N)C(C)C)ccc2c1COC2=O` [Example 44, (R)-1-(4-methyl-1-oxo-1,3-dihydroisobenzofuran-5-yl)-2-(((1-(3-methyl-2-oxo-2,3-dihydrobenzo[d]oxazol-5-yl)-1H-pyrazol-4-yl)methyl)amino)ethyl D-valinate], for which the IC50 was 140 nM. Regarding `Cc1c([C@@H](O)CN(CCCC(F)(F)F)Cc2ccc(-c3ccc4oc(=O)n(C)c4c3)nc2)ccc2c1COC2=O` [Example 163, (R)-5-(5-(((2-hydroxy-2-(4-methyl-1-oxo-1,3-dihydroisobenzofuran-5-yl)ethyl)(4,4,4-trifluorobutyl)amino)meth-yl)pyridin-2-yl)-3-methylbenzo[d]oxazol-2(3H)-one], the IC50 is 260 nM. Next, `Cc1c(C(O)CN(C)Cc2ccc(-n3cc(C#N)c4ccccc43)cc2)ccc2c1COC2=O` (single isomer, unassigned) [Example 12-II, 1-(4-(((2-hydroxy-2-(4-methyl-1-oxo-1,3-dihydroisobenzofuran-5-yl)ethyl)(methyl)amino)methyl)phenyl)-1H-indole-3-carbonitrile]: 520 nM.

As for `Cc1ncn(-c2ncc(CNC[C@H](O)c3ccc4c(c3C)COC4=O)cn2)c1C(F)F` [Example 90, (R)-5-(2-(((2-(5-(difluoromethyl)-4-methyl-1H-imidazol-1-yl)pyrimidin-5-yl)methyl)amino)-1-hydroxyethyl)-4-methylisobenzofuran-1(3H)-one], the IC50 came out at 230 nM.

In the case of `Cc1cc(-n2cc(CNC[C@H](NC(=O)CO)c3ccc4c(c3C)COC4=O)cn2)ncc1C#N` [Example 63, (R)-N-(2-(((1-(5-cyano-4-methylpyridin-2-yl)-1H-pyrazol-4-yl)methyl)amino)-1-(4-methyl-1-oxo-1,3-dihydroisobenzofuran-5-yl)ethyl)-2-hydroxyacetamide], the IC50 worked out at 130 nM. On to `Cc1c(C(CO)N(C)Cc2cnc(-c3ccc4oc(=O)n(C)c4c3)nc2)ccc2c1COC2=O` (single isomer, unassigned) [Example 14-I, 5-(5-(((2-hydroxy-1-(4-methyl-1-oxo-1,3-dihydroisobenzofuran-5-yl)ethyl)(methyl)amino)methyl)pyrimidin-2-yl)-3-methylbenzo[d]oxazol-2(3H)-one], for which the IC50 was found to be 4000 nM. `Cc1c(C(O)CN(C)Cc2ccc(-n3ccc4c(C#N)cccc43)nc2)ccc2c1COC2=O` (single isomer, unassigned) [Example 25-I, 1-(5-(((2-hydroxy-2-(4-methyl-1-oxo-1,3-dihydroisobenzofuran-5-yl)ethyl)(methyl)amino)methyl)pyridin-2-yl)-1H-indole-4-carbonitrile]: the IC50 was 240 nM.

In the case of `Cc1cn(-c2ccc(CNC[C@H](O)c3ccc4c(c3C)COC4=O)nn2)cn1` [Example 53, (R)-5-(1-hydroxy-2-(((6-(4-methyl-1H-imidazol-1-yl)pyridazin-3-yl)methyl)amino)ethyl)-4-methylisobenzofuran-1(3H)-one], the IC50 is 320 nM.
